Entries after “also recorded” stand apart in the source; their conditions may differ.
Tests used:
[1] = cited from earlier work
[2] = Differential scanning calorimetry (decomposition); format: physicochemical; settings: DSC curve
Description: Calorimetric studies are conducted using a Modulated Differential Scanning calorimetry instrument (MDSC). Accurately weighed samples are sealed in Tzero aluminum pans. Empty sealed Tzero aluminum pans are used as a reference. […] Thermal analysis of pure active, excipients, formulations and physical mixtures are performed. Data analysis is performed using Universal Analysis software to measure melting point enthalpy of melting.
Differential scanning calorimetry (DSC) is a thermoanalytical technique useful in detecting phase transitions in solid samples by measuring the amount of heat absorbed or released during such transitions.
DSC analysis was performed using a TA Trios DSC instrument. Samples tested were HPBCD, the Active, and the active-HPBCD inclusion complexes. Each weighed sample for analysis ranged from 2.00 mg to 4.00 mg.

[3] = Stability studies (shelf life, visible changes); format: physicochemical; settings: visible changes; for Stability of Actives at 40° C.: 40° C. accelerated stability
Description: The effects of HPBCD on the shelf life stability of each active agent is studied at pre-determined temperatures for 11 weeks. Real time stability is observed at −17° C., 5° C. and 25° C., and accelerated stability is observed at 40° C. For accelerated stability, one day at 40° C. is equivalent to one week, thus the data represents 77 weeks. […] The vials are then placed in a temperature-controlled oven or refrigerator/freezer. The compounds are checked daily and any visible changes are noted.

Phase solubility studies = settings: active with HPBCD; calculated using Eq. (1)
[4] = Skin permeation and delivery, Franz-type vertical diffusion cell; format: in vitro ADME, human; settings: 0-8 hours
Description: Skin permeation was evaluated using a custom-fabricated Franz-type vertical diffusion cell (FDC). […] Fluid samples can be withdrawn for analysis from the receptor fluid. […] Membranes were defrosted, washed and subjected to visual inspection before use. Skin delivery and permeation studies were performed on six (6) replicates per Active formulation. A finite dose was applied to the surface of the skin under nonocclusive conditions. Dose volume was 10 μl (18 mg/cm^2). The dose was spread using a blunt glass rod. Receptor chambers were inserted in a dry block with an external magnetic stir bar drive that accommodated up to 15 Franz cells per block. […] Receptor well temperature was maintained at 32±0.5° C.; skin surface temperature was maintained at 30±1.0° C. Receptor wells were sampled at three time points, namely 8 hr, 24 hr and 48 hr; 300 μl was removed, loaded in a 96-well plate, and stored at 4-8° C. prior to analysis. Samples were analyzed within 5 days of collection. There was no further preparation of the samples prior to analysis. […] The membrane was […] […] Retention of the Actives in the epidermis and delivery of Actives to the dermis was measured by extracting the Active from each layer individually at twenty-four hours using dimethyl sulfoxide (DMSO). […] After the LC-MS or UV testing was complete, samples were analyzed using ChemStation software (Agilent).

[5] = Solubility in water (statements); format: physicochemical
[6] = cited from earlier work; remark: listed apart in the source

Stability of Actives at 5° C. ([3]; Week 1) | Stability of Actives at 5° C. ([3]; Week 2) | Stability of Actives at 5° C. ([3]; Week 3) | Stability of Actives at 5° C. ([3]; Week 4) | Stability of Actives at 5° C. ([3]; Week 5) | Stability of Actives at 5° C. ([3]; Week 6) | Stability of Actives at 5° C. ([3]; Week 7) | Stability of Actives at 5° C. ([3]; Week 8) | Stability of Actives at 5° C. ([3]; Week 9) | Stability of Actives at 5° C. ([3]; Week 10) | Stability of Actives at 5° C. ([3]; Week 11) | Stability of Actives at 25° C. ([3]; Week 1) | Stability of Actives at 25° C. ([3]; Week 2) | Stability of Actives at 25° C. ([3]; Week 3) | Stability of Actives at 25° C. ([3]; Week 4) | Stability of Actives at 25° C. ([3]; Week 5) | Stability of Actives at 25° C. ([3]; Week 6) | Stability of Actives at 25° C. ([3]; Week 7) | Stability of Actives at 25° C. ([3]; Week 8) | Stability of Actives at 25° C. ([3]; Week 9) | Molecule | other results
– | – | – | – | – | – | – | – | – | – | – | – | – | – | – | – | – | – | – | – | 1,3-diazacyclopenta-2,4-diene [imidazole] | pKa of conjugate acid (imidazolium ion) [1]: approximately 7.0
0 | 0 | 0 | 0 | 0 | 0 | 0 | 0 | 0 | 0 | 0 | 0 | 0 | 0 | 0 | 0 | 0 | 0 | 0 | 0 | CCOC(=O)c1ccc(N)cc1 [Benzocaine] | decomposition (DSC) [2]: 230 °C; Stability of Actives at 25° C. ([3]; Week 10): 0; Stability of Actives at 25° C. ([3]; Week 11): 0; Stability of Actives at 40° C. ([3]; Week 1): 0; Stability of Actives at 40° C. ([3]; Week 2): 0; Stability of Actives at 40° C. ([3]; Week 3): 0; Stability of Actives at 40° C. ([3]; Week 4): 0; Stability of Actives at 40° C. ([3]; Week 5): 0; Stability of Actives at 40° C. ([3]; Week 6): 0; Stability of Actives at 40° C. ([3]; Week 7): 0; Stability of Actives at 40° C. ([3]; Week 8): 0; Stability of Actives at 40° C. ([3]; Week 9): 0; Stability of Actives at 40° C. ([3]; Week 10): 0; Stability of Actives at 40° C. ([3]; Week 11): 0; association constant (Kc) for complex formation (Phase solubility studies): 1.031 M⁻¹
0 | 0 | 0 | 0 | 0 | 0 | 0 | 0 | 0 | 0 | 0 | 0 | 0 | 0 | 0 | 0 | 0 | 0 | 0 | 0 | CC(O)COC[C@H]1O[C@@H]2O[C@H]3[C@H](O)[C@@H](O)[C@@H](O[C@H]4[C@H](O)[C@@H](O)[C@@H](O[C@H]5[C@H](O)[C@@H](O)[C@@H](O[C@H]6[C@H](O)[C@@H](O)[C@@H](O[C@H]7[C@H](O)[C@@H](O)[C@@H](O[C@H]8[C@H](O)[C@@H](O)[C@@H](O[C@H]1[C@H](O)[C@H]2O)O[C@@H]8COCC(C)O)O[C@@H]7COCC(C)O)O[C@@H]6COCC(C)O)O[C@@H]5COCC(C)O)O[C@@H]4COCC(C)O)O[C@@H]3COCC(C)O (stereo partly drawn) [HPBCD, Hydroxypropyl β-cyclodextrin] | aqueous solubility [6]: more than 60 g/100 mL; Stability of Actives at 25° C. ([3]; Week 10): 0; Stability of Actives at 25° C. ([3]; Week 11): 0; Stability of Actives at 40° C. ([3]; Week 1): 0; Stability of Actives at 40° C. ([3]; Week 2): 0; Stability of Actives at 40° C. ([3]; Week 3): 0; Stability of Actives at 40° C. ([3]; Week 4): 0; Stability of Actives at 40° C. ([3]; Week 5): 0; Stability of Actives at 40° C. ([3]; Week 6): 0; Stability of Actives at 40° C. ([3]; Week 7): 0; Stability of Actives at 40° C. ([3]; Week 8): 0; Stability of Actives at 40° C. ([3]; Week 9): 0; Stability of Actives at 40° C. ([3]; Week 10): 0; Stability of Actives at 40° C. ([3]; Week 11): 0

Molecule | Stability of Actives at 5° C. ([3]; Week 1) | Stability of Actives at 5° C. ([3]; Week 2) | Stability of Actives at 5° C. ([3]; Week 3) | Stability of Actives at 5° C. ([3]; Week 4) | Stability of Actives at 5° C. ([3]; Week 5) | Stability of Actives at 5° C. ([3]; Week 6) | Stability of Actives at 5° C. ([3]; Week 7) | Stability of Actives at 5° C. ([3]; Week 8) | Stability of Actives at 5° C. ([3]; Week 9) | Stability of Actives at 5° C. ([3]; Week 10) | Stability of Actives at 5° C. ([3]; Week 11) | Stability of Actives at 25° C. ([3]; Week 1) | Stability of Actives at 25° C. ([3]; Week 2) | Stability of Actives at 25° C. ([3]; Week 3) | Stability of Actives at 25° C. ([3]; Week 4) | Stability of Actives at 25° C. ([3]; Week 5) | Stability of Actives at 25° C. ([3]; Week 6) | Stability of Actives at 25° C. ([3]; Week 7) | Stability of Actives at 25° C. ([3]; Week 8) | Stability of Actives at 25° C. ([3]; Week 9) | other results
C=C(C)[C@@H]1CCC(C)=C[C@H]1c1c(O)cc(CCCCC)cc1O [CBD, Cannabidiol] | – | – | – | – | – | – | – | – | – | – | – | 0 | 0 | 0 | – | – | – | – | – | – | delivered dose, transdermal [4]: no amount of CBD was detected as penetrating through the skin; solubility in water [5]: completely insoluble in water; also recorded: poor water solubility; association constant (Kc) for complex formation (Phase solubility studies): 0.42247 M⁻¹

From patent US20200347153A1, “METHODS FOR FORMING INCLUSION COMPLEXES WITH HYDROPHILIC BETA-CYCLODEXTRIN DERIVATIVES AND COMPOSITIONS THEREOF” (priority 2019, published 2020)
